According to patent US20080254986A1, “Use of piperonyl butoxide to protect plants” (priority 2007, published 2008):

Legend:
Format in all cases: in vivo
Impatiens plants [1] = assay: Marketability of Impatiens plants, ABA drench and PBO foliar spray
Description: (§1) Ornamental Plants were purchased from local greenhouse retail outlets and allowed to equilibrate to greenhouse conditions for a minimum of 48 hours before experiments were performed.
(§2) To quantify resistance of plants to wilting, a wilt index was developed. The wilt index uses numerical values of 1-4 (1=no wilt, 4=completely wilted and loss of turgor) to express wilt status. A wilt index was determined for each individual plant assessed daily. When the wilt index was equal to or exceeded 2.5, the plant was considered not salable, and the last day prior to that was considered its last marketable day
To better determine the effectiveness of PBO on ABA effectiveness, a spatial separation in application methodology was used. That is, water or ABA were drench applied at 10% of the pot volume, followed by a spray application to the foliage of Tween 20 (0.05%) in water, either alone, or in combination with 1000 ppm PBO.
In Table 6, the rate of ABA in the drench application is varied in order to determine the effect of PBO sprays on ABA rate.

cotton [2] = assay: Stomatal conductance of cotton plants after drench application; conditions: for Reduction of stomatal conductance: drench 50 ppm ABA
Description: Cotton was planted and grown at 25° C. under a 16:8 photoperiod for 14 days. After two weeks, plants were moved to the greenhouse (25±2° C., 16:8 photoperiod) for an additional three weeks before treatment. […] Transpiration rate of each treatment was calculated as the percentage of that of control at each day to eliminate day-to-day variation caused by changes of environmental condition such as light intensity and temperature. In cotton, ABA, PBO and the combination were applied to evaluate the effect on stomatol conductance. A decrease in stomatal aperture, reflected in the conductance measures, is an immediate and direct effect of applied ABA (Finkelstein and Rock, 2002).

Impatiens plants [3] = assay: Wilt index of Impatiens plants after spray application
Description: as §1, §2
In the ornamental plant Impatiens, spray applications were made to evaluate the effects of ABA, PBO or the combination to increase the number of days until the plants wilted. Using a wilt index of 1-4 (1=no wilt, 4=completely wilted and loss of turgor), plants were evaluated following spray application.

Impatiens plants [4] = assay: Marketability (days marketable) of Impatiens plants after sprays
Description: as §1, §2
When the wilt incidence was less than 2.5, the treated plants were considered saleable. The duration of salability was determined for individual plants and the values averaged (Table 4).

cotton [5] = assay: Stomatal conductance of cotton plants after spray application
Description: Cotton was planted and grown at 25° C. under a 16:8 photoperiod for 14 days. After two weeks, plants were moved to the greenhouse (25±2° C., 16:8 photoperiod) for an additional three weeks before treatment.
[…] Transpiration rate of each treatment was calculated as the percentage of that of control at each day to eliminate day-to-day variation caused by changes of environmental condition such as light intensity and temperature.
In cotton, ABA, PBO and the combination were applied to evaluate the effect on stomatol conductance. A decrease in stomatal aperture, reflected in the conductance measures, is an immediate and direct effect of applied ABA (Finkelstein and Rock, 2002).

Viola (Violet) = assay: Marketability of Viola (Violet) after sprays
Description: as §1, §2
To determine if the combination of ABA and PBO is effective at increasing marketable life of other ornamental plants, Viola plants (Violet) were used. All applications were made by spray to fully hydrated plants. Spray solutions were applied as soon as possible after mixing. All spray applications contained Tween 20 at 0.05% (v/v).

Pansy = assay: Marketability of Pansy after sprays
Description: as §1, §2
To determine if the ABA, PBO, or the combination of ABA and PBO is effective at increasing marketable life of other ornamental plants, Pansy plants were used. All applications were made by spray to fully hydrated plants. Solutions were applied as soon as possible after mixing. All spray applications contained Tween 20 at 0.05% (v/v). Plants were held in a greenhouse without further irrigation.

[6] = drench 50 ppm, 0 hours after application
[7] = drench 50 ppm, 5 hours after application
[8] = drench 50 ppm, 24 hours after application
[9] = drench 50 ppm, 48 hours after application
[10] = drench 50 ppm, 72 hours after application
[11] = drench 50 ppm, 96 hours after application
[12] = spray PBO 1000 ppm + Tween 20 0.05%
[13] = spray 50 ppm, 0 hours after application
[14] = spray 50 ppm, 5 hours after application
[15] = spray 50 ppm, 24 hours after application
[16] = spray 50 ppm, 48 hours after application
[17] = spray 50 ppm, 72 hours after application
[18] = spray 50 ppm, 96 hours after application

For `CCCCOCCOCCOCc1cc2c(cc1CCC)OCO2` [PBO, piperonyl butoxide], the “Days Marketable (Wilt index less than 2.5)” value (Impatiens plants [1]; Table 5, drench water, spray PBO 1000 ppm + Tween 20 0.05%) was 6.69 days, the “Days Marketable (Wilt index less than 2.5)” value (Impatiens plants [1]; Table 6, drench water, spray PBO 1000 ppm + Tween 20 0.05%) was 6.5 days and the “Percent Conductance (stomatal conductance, control = 100%)” value (cotton [2]; [6]) was 100.8%. The “Percent Conductance (stomatal conductance, control = 100%)” value (cotton [2]; [7]) was 84.0%, the “Percent Conductance (stomatal conductance, control = 100%)” value (cotton [2]; [8]) was 95.1% and the “Percent Conductance (stomatal conductance, control = 100%)” value (cotton [2]; [9]) was 97.7%. For the same compound, the “Percent Conductance (stomatal conductance, control = 100%)” value (cotton [2]; [10]) was 91.6%, the “Percent Conductance (stomatal conductance, control = 100%)” value (cotton [2]; [11]) was 101.5% and the “Percent Conductance (stomatal conductance, control = 100%)” value (cotton [2]; drench 500 ppm, 0 hours after application) was 100.4%. For the same compound, the “Percent Conductance (stomatal conductance, control = 100%)” value (cotton [2]; drench 500 ppm, 5 hours after application) was 86.8%, the “Percent Conductance (stomatal conductance, control = 100%)” value (cotton [2]; drench 500 ppm, 24 hours after application) was 89.8% and the “Percent Conductance (stomatal conductance, control = 100%)” value (cotton [2]; drench 500 ppm, 48 hours after application) was 96.9%. For the same compound, the “Percent Conductance (stomatal conductance, control = 100%)” value (cotton [2]; drench 500 ppm, 72 hours after application) was 100.2%, the “Percent Conductance (stomatal conductance, control = 100%)” value (cotton [2]; drench 500 ppm, 96 hours after application) was 93.1% and the “Wilt Index (1 = no wilt; 4 = plants wilted, complete loss of turgor)” value (Impatiens plants [3]; spray PBO 1000 ppm + Tween 20 0.05%, 0 days after spray) was 1. For the same compound, the “Wilt Index (1 = no wilt; 4 = plants wilted, complete loss of turgor)” value (Impatiens plants [3]; spray PBO 1000 ppm + Tween 20 0.05%, 4 days after spray) was 1.13, the “Wilt Index (1 = no wilt; 4 = plants wilted, complete loss of turgor)” value (Impatiens plants [3]; spray PBO 1000 ppm + Tween 20 0.05%, 5 days after spray) was 1.34 and the “Wilt Index (1 = no wilt; 4 = plants wilted, complete loss of turgor)” value (Impatiens plants [3]; spray PBO 1000 ppm + Tween 20 0.05%, 6 days after spray) was 1.83. The “Wilt Index (1 = no wilt; 4 = plants wilted, complete loss of turgor)” value (Impatiens plants [3]; spray PBO 1000 ppm + Tween 20 0.05%, 7 days after spray) was 2.25, the “Days Marketable (Wilt index less than 2.5)” value (Impatiens plants [4]; [12]) was 6.6 days and the “Increase of the effect of ABA on stomatal conductance by addition of PBO” value (cotton [5]; PBO 500 ppm added to ABA spray, 5 hours) was 27%. For the same compound, the “Percent Conductance (stomatal conductance, control = 100%)” value (cotton [5]; [13]) was 101.8%, the “Percent Conductance (stomatal conductance, control = 100%)” value (cotton [5]; [14]) was 89.6% and the “Percent Conductance (stomatal conductance, control = 100%)” value (cotton [5]; [15]) was 100.7%. The “Percent Conductance (stomatal conductance, control = 100%)” value (cotton [5]; [16]) was 100.2%, the “Percent Conductance (stomatal conductance, control = 100%)” value (cotton [5]; [17]) was 90.2% and the “Percent Conductance (stomatal conductance, control = 100%)” value (cotton [5]; [18]) was 96.2%. The “Percent Conductance (stomatal conductance, control = 100%)” value (cotton [5]; spray 500 ppm, 0 hours after application) was 103.0%, the “Percent Conductance (stomatal conductance, control = 100%)” value (cotton [5]; spray 500 ppm, 5 hours after application) was 67.2% and the “Percent Conductance (stomatal conductance, control = 100%)” value (cotton [5]; spray 500 ppm, 24 hours after application) was 68.5%. The “Percent Conductance (stomatal conductance, control = 100%)” value (cotton [5]; spray 500 ppm, 48 hours after application) was 81.5%, the “Percent Conductance (stomatal conductance, control = 100%)” value (cotton [5]; spray 500 ppm, 72 hours after application) was 84.6% and the “Percent Conductance (stomatal conductance, control = 100%)” value (cotton [5]; spray 500 ppm, 96 hours after application) was 95.2%. The “Days Marketable (Wilt index less than 2.5)” value (Viola (Violet); [12]) was 5.9 days and the “Days Marketable (Wilt index less than 2.5)” value (Pansy; spray PBO 1.5 mg + Tween 20 0.05%) was 5.8 days.
In the case of S-(+)-abscisic acid [ABA], the “Days Marketable (Wilt index less than 2.5)” value (Impatiens plants [1]; Table 5, drench ABA 200 ppm, spray Tween 20 0.05%) is reported as 7.69 days, the “Days Marketable (Wilt index less than 2.5)” value (Impatiens plants [1]; Table 6, drench ABA 50 ppm, spray Tween 20 0.05%) is reported as 6.5 days and the “Days Marketable (Wilt index less than 2.5)” value (Impatiens plants [1]; Table 6, drench ABA 200 ppm, spray Tween 20 0.05%) is reported as 8.1 days. For the same compound, the “Reduction of stomatal conductance” value (cotton [2]; 5 hours post drench) was 44%, the “Reduction of stomatal conductance” value (cotton [2]; 24 hours post drench) was 22.5% and the “Percent Conductance (stomatal conductance, control = 100%)” value (cotton [2]; [6]) was 100.3%. For the same compound, the “Percent Conductance (stomatal conductance, control = 100%)” value (cotton [2]; [7]) was 56.0%, the “Percent Conductance (stomatal conductance, control = 100%)” value (cotton [2]; [8]) was 77.5% and the “Percent Conductance (stomatal conductance, control = 100%)” value (cotton [2]; [9]) was 85.8%. The “Percent Conductance (stomatal conductance, control = 100%)” value (cotton [2]; [10]) was 83.9%, the “Percent Conductance (stomatal conductance, control = 100%)” value (cotton [2]; [11]) was 104.3% and the “Wilt Index (1 = no wilt; 4 = plants wilted, complete loss of turgor)” value (Impatiens plants [3]; spray ABA 200 ppm + Tween 20 0.05%, 0 days after spray) was 1. The “Wilt Index (1 = no wilt; 4 = plants wilted, complete loss of turgor)” value (Impatiens plants [3]; spray ABA 200 ppm + Tween 20 0.05%, 4 days after spray) was 1.00, the “Wilt Index (1 = no wilt; 4 = plants wilted, complete loss of turgor)” value (Impatiens plants [3]; spray ABA 200 ppm + Tween 20 0.05%, 5 days after spray) was 1.27 and the “Wilt Index (1 = no wilt; 4 = plants wilted, complete loss of turgor)” value (Impatiens plants [3]; spray ABA 200 ppm + Tween 20 0.05%, 6 days after spray) was 1.66. For the same compound, the “Wilt Index (1 = no wilt; 4 = plants wilted, complete loss of turgor)” value (Impatiens plants [3]; spray ABA 200 ppm + Tween 20 0.05%, 7 days after spray) was 2.31, the “Increase in shelf life without watering” value (Impatiens plants [4]; ABA spray 200 ppm versus control spray) was “almost two day increase” and the “Days Marketable (Wilt index less than 2.5)” value (Impatiens plants [4]; spray ABA 200 ppm + Tween 20 0.05%) was 7.5 days. For the same compound, the “Decrease in stomatal conductance” value (cotton [5]; ABA spray, 5 hours after spray application) was 58.9%, the “Percent Conductance (stomatal conductance, control = 100%)” value (cotton [5]; [13]) was 101.1% and the “Percent Conductance (stomatal conductance, control = 100%)” value (cotton [5]; [14]) was 41.1%. For the same compound, the “Percent Conductance (stomatal conductance, control = 100%)” value (cotton [5]; [15]) was 86.2%, the “Percent Conductance (stomatal conductance, control = 100%)” value (cotton [5]; [16]) was 91.9% and the “Percent Conductance (stomatal conductance, control = 100%)” value (cotton [5]; [17]) was 102.0%. The “Percent Conductance (stomatal conductance, control = 100%)” value (cotton [5]; [18]) was 100.6%, the “Days Marketable (Wilt index less than 2.5)” value (Viola (Violet); spray ABA 100 ppm + Tween 20 0.05%) was 8.0 days and the “Days Marketable (Wilt index less than 2.5)” value (Pansy; spray ABA 7.5 mg + Tween 20 0.05%) was 7.6 days.
